Results taken from patent US6706664B1, “Benzoxazole compounds, process for the preparation thereof and herbicides” (UBE Industries, Ltd., priority 1999, dated 2004).

What was measured:
Parameters in all cases: key: 0: normal development; 1: Less damaged; 2: Slightly damaged; 3: Moderately damaged; 4: Severely damaged; 5: All killed
young rice plant = test: Herbicidal test for paddy field; type: in vivo; conditions: paddy field pot, 500 g/ha dropwise at 1.5 leaf stage of barnyardgrass, 3 weeks, rank vs non-treated
Method: (§1) Wagner pots, each having an area of 1/5000 are, were packed with Ube soil (alluvial soil) and planted with seeds or tubers of young rice plant, barnyardgrass, bulrush, flat sedge and monochoria. Then, the pots were filled with water to a depth of 3 cm.
(§2) Each wettable powder of the desired compounds (I) shown in Table 1 prepared in accordance with Example 2 was diluted with water containing a surfactant (0.05%) and subjected to dropwise addition treatment by using pipet so that an effective concentration of the compound (I) in each herbicide became 500 g/ha at 1.5 leaf stage of barnyardgrass.
(§3) These plants were controlled in a glass house at an average temperature of 25° C. for 3 weeks, and then herbicidal effects thereof were investigated.
(§4) The herbicidal effects are evaluated according to the following 6 ranks as compared with non-treated district.
(§5) (0: normal development, 1: Less damaged, 2: Slightly damaged, 3: Moderately damaged, 4: Severely damaged, 5: All killed).

barnyardgrass [1] = test: Herbicidal test for paddy field; type: in vivo, Echinochloa crusgalli; conditions: paddy field pot, 500 g/ha dropwise at 1.5 leaf stage of barnyardgrass, 3 weeks, rank vs non-treated
Method: as §1, §2, §3, §4, §5

bulrush = test: Herbicidal test for paddy field; type: in vivo, Scrips juncoides; conditions: paddy field pot, 500 g/ha dropwise at 1.5 leaf stage of barnyardgrass, 3 weeks, rank vs non-treated
Method: as §1, §2, §3, §4, §5

monochoria = test: Herbicidal test for paddy field; type: in vivo, Monochoria vaginalis; conditions: paddy field pot, 500 g/ha dropwise at 1.5 leaf stage of barnyardgrass, 3 weeks, rank vs non-treated
Method: as §1, §2, §3, §4, §5

corn [2] = test: Soil treatment test for upland field; type: in vivo; conditions: 500 g/ha, glass house 25° C., 3 weeks
Text: as §5
(§6) Wagner pots, each having an area of 1/5000 are, were packed with Ube soil (alluvial soil), and then each seed of corn, soybean, cotton, wheat, solgum, sugar beat, Large crabgrass, barnyardgrass, green foxtail, blackgrass, annual bluegrass, common lambsquartes, livid amaranth and velvetleaf were planted and covered with soil.
(§7) Each wettable powder of the desired compounds (I) shown in Table 1 prepared in accordance with Example 2 was diluted with water containing a surfactant (0.05%) and uniformly sprayed on the surface of each soil so that an effective concentration of the compound (I) in each herbicide became 500 g/ha. These plants were controlled in a glass house at an average temperature of 25° C. for 3 weeks, and then herbicidal effects thereof were investigated.
(§8) The herbicidal effects were evaluated according to the evaluation method described in the above (1).

cotton = test: Soil treatment test for upland field; type: in vivo; conditions: 500 g/ha, glass house 25° C., 3 weeks
Text: as §5, §6, §7, §8

solgum [3] = test: Soil treatment test for upland field; type: in vivo; conditions: 500 g/ha, glass house 25° C., 3 weeks
Text: as §5, §6, §7, §8

soybean = test: Soil treatment test for upland field; type: in vivo; conditions: 500 g/ha, glass house 25° C., 3 weeks
Text: as §5, §6, §7, §8

sugar beat [4] = test: Soil treatment test for upland field; type: in vivo; conditions: 500 g/ha, glass house 25° C., 3 weeks
Text: as §5, §6, §7, §8

wheat [5] = test: Soil treatment test for upland field; type: in vivo; conditions: 500 g/ha, glass house 25° C., 3 weeks
Text: as §5, §6, §7, §8

Large crabgrass [6] = test: Soil treatment test for upland field; type: in vivo, Digitaria adscendens; conditions: 500 g/ha, glass house 25° C., 3 weeks
Text: as §5, §6, §7, §8

barnyardgrass [7] = test: Soil treatment test for upland field; type: in vivo, Echinochloa crusgalli; conditions: 500 g/ha, glass house 25° C., 3 weeks
Text: as §5, §6, §7, §8

green foxtail [8] = test: Soil treatment test for upland field; type: in vivo, Setaria viridis; conditions: 500 g/ha, glass house 25° C., 3 weeks
Text: as §5, §6, §7, §8

blackgrass = test: Soil treatment test for upland field; type: in vivo, Alopecurus aegualis; conditions: 500 g/ha, glass house 25° C., 3 weeks
Text: as §5, §6, §7, §8

annual bluegrass [9] = test: Soil treatment test for upland field; type: in vivo, Poa annua; conditions: 500 g/ha, glass house 25° C., 3 weeks
Text: as §5, §6, §7, §8

common lambsquartes [10] = test: Soil treatment test for upland field; type: in vivo, Chenopodium album; conditions: 500 g/ha, glass house 25° C., 3 weeks
Text: as §5, §6, §7, §8

livid amaranth [11] = test: Soil treatment test for upland field; type: in vivo, Amaranthus lividus; conditions: 500 g/ha, glass house 25° C., 3 weeks
Text: as §5, §6, §7, §8

corn [12] = test: Foliar spread test for upland field; type: in vivo; conditions: foliar spray 500 ppm, 3 weeks, rank vs non-treated
Text: as §5
(§9) Wagner pots, each having an area of 1/5000 are, were packed with volcanic ash soil and then each seed of corn, soybean, cotton, wheat, solgum, sugar beat, Large crabgrass, barnyardgrass, green foxtail, blackgrass, annual bluegrass, common lambsquartes, livid amaranth, velvetleaf and morning glory was planted, covered with soil and grown in a glass house at an average temperature of […] for about 2 weeks.
(§10) Each wettable powder of the desired compounds (I) shown in Table 1 prepared in accordance with Example 2 was diluted to 500 ppm with water containing a surfactant (0.5%) and then uniformly sprayed on the above respective plants.
(§11) After these plants were controlled in a glass house at an average temperature of 25° C. for 3 weeks, the herbicidal effects thereof were investigated.
as §8

solgum [13] = test: Foliar spread test for upland field; type: in vivo; conditions: foliar spray 500 ppm, 3 weeks, rank vs non-treated
Text: as §5, §9, §10, §11, §8

sugar beat [14] = test: Foliar spread test for upland field; type: in vivo; conditions: foliar spray 500 ppm, 3 weeks, rank vs non-treated
Text: as §5, §9, §10, §11, §8

wheat [15] = test: Foliar spread test for upland field; type: in vivo; conditions: foliar spray 500 ppm, 3 weeks, rank vs non-treated
Text: as §5, §9, §10, §11, §8

green foxtail [16] = test: Foliar spread test for upland field; type: in vivo, Setaria viridis; conditions: foliar spray 500 ppm, 3 weeks, rank vs non-treated
Text: as §5, §9, §10, §11, §8

livid amaranth [17] = test: Foliar spread test for upland field; type: in vivo, Amaranthus lividus; conditions: foliar spray 500 ppm, 3 weeks, rank vs non-treated
Text: as §5, §9, §10, §11, §8

velvetleaf [18] = test: Foliar spread test for upland field; type: in vivo, Abutilon theophrasti; conditions: foliar spray 500 ppm, 3 weeks, rank vs non-treated
Text: as §5, §9, §10, §11, §8

velvetleaf [19] = test: Soil treatment test for upland field; type: in vivo, Abutilon theophrasti; conditions: 500 g/ha, glass house 25° C., 3 weeks
Text: as §5, §6, §7, §8

common lambsquartes [20] = test: Foliar spread test for upland field; type: in vivo, Chenopodium album; conditions: foliar spray 500 ppm, 3 weeks, rank vs non-treated
Text: as §5, §9, §10, §11, §8

morning glory = test: Foliar spread test for upland field; type: in vivo, Ipomoea spps.; conditions: foliar spray 500 ppm, 3 weeks, rank vs non-treated
Text: as §5, §9, §10, §11, §8

Large crabgrass [21] = test: Foliar spread test for upland field; type: in vivo, Digitaria adscendens; conditions: foliar spray 500 ppm, 3 weeks, rank vs non-treated
Text: as §5, §9, §10, §11, §8

annual bluegrass [22] = test: Foliar spread test for upland field; type: in vivo, Poa annua; conditions: foliar spray 500 ppm, 3 weeks, rank vs non-treated
Text: as §5, §9, §10, §11, §8

Row | Structure (SMILES) | Effect Young rice plant (young rice plant) | Effect Barnyardgrass (barnyardgrass [1]) | Effect Bulrush (bulrush) | Effect Monochoria (monochoria) | Effects Corn (corn [2]) | Effects Cotton (cotton) | Effects Solgum (solgum [3]) | Effects Soybean (soybean) | Effects Sugar beat (sugar beat [4]) | Effects Wheat (wheat [5]) | Effects Large crabgrass (Large crabgrass [6]) | Effects Barnyardgrass (barnyardgrass [7]) | Effects Green foxtail (green foxtail [8]) | Effects Blackgrass (blackgrass) | Effects Annual bluegrass (annual bluegrass [9]) | Effects Common lambsquarters (common lambsquartes [10]) | Effects Livid amaranth (livid amaranth [11]) | Effects Corn (corn [12]) | Effects Solgum (solgum [13]) | Effects Sugar beat (sugar beat [14]) | also measured
1 | CCC(Oc1ccc(F)c(C(F)(F)F)c1)c1nc2ccc(Cl)cc2o1 (stereo not shown) [Compound 9] | 0 | 3 | 3 | 4 | 0 | 0 | 0 | 0 | 2 | 0 | 5 | 4 | 5 | 3 | 4 | 3 | 5 |  |  |  | 
2 | CCCC(Oc1cccc(C#N)c1)c1nc2cc(S(C)(=O)=O)c(C)cc2o1 (stereo not shown) [Compound 492] | 0 | 2 | 3 | 5 |  |  |  |  |  |  |  |  |  |  |  |  |  | 1 | 1 | 4 | Effects Wheat (wheat [15]): 1; Effects Green foxtail (green foxtail [16]): 2; Effects Livid amaranth (livid amaranth [17]): 4; Effects Velvetleaf (velvetleaf [18]): 3
3 | CCC(Oc1ccc(F)c(C(F)(F)F)c1)c1nc2cc(C#N)c(C#N)cc2o1 (stereo not shown) [Compound 316] | 0 |  | 3 | 5 | 0 | 0 | 0 | 0 | 5 | 0 | 5 |  | 5 | 4 | 4 | 5 | 5 | 2 | 1 | 5 | Effects Velvetleaf (velvetleaf [19]): 5; Effects Wheat (wheat [15]): 1; Effects Green foxtail (green foxtail [16]): 5; Effects Common lambsquarters (common lambsquartes [20]): 3; Effects Livid amaranth (livid amaranth [17]): 5; Effects Velvetleaf (velvetleaf [18]): 3; Effects Morning glory (morning glory): 2
4 | CCC(Oc1ccc(F)c(C(F)(F)F)c1)c1nc2cc(OC)ccc2o1 (stereo not shown) [Compound 503] |  |  |  |  | 2 | 1 | 2 | 1 | 5 | 2 | 5 | 5 | 5 | 5 | 5 | 5 | 5 | 2 | 2 | 4 | Effects Velvetleaf (velvetleaf [19]): 5; Effects Wheat (wheat [15]): 2; Effects Large crabgrass (Large crabgrass [21]): 3; Effects Green foxtail (green foxtail [16]): 5; Effects Annual bluegrass (annual bluegrass [22]): 3; Effects Common lambsquarters (common lambsquartes [20]): 5; Effects Livid amaranth (livid amaranth [17]): 5; Effects Velvetleaf (velvetleaf [18]): 3
5 | CCC(Oc1cccc(C(F)(F)F)c1)c1nc2cc(C(F)(F)F)ccc2o1 (stereo not shown) [Compound 198] | 1 | 4 | 1 | 5 | 2 | 1 | 2 |  | 5 | 1 | 5 | 4 | 5 | 5 | 5 | 4 | 5 |  |  |  | Effects Velvetleaf (velvetleaf [19]): 3
